Laboratory results reported in patent US6274715A, “Tricyclic erythromycin derivatives” (priority 1997, dated 2001).
Values after ≈ are worked out from the molar mass of the structure shown.

Assays:
Type in all cases: cell-based
[1] = tested on: STAPHYLOCOCCUS AUREUS ATCC 6538P; assay: In vitro antibacterial activity, MIC, BHI agar dilution; conditions: S. aureus ATCC 6538P, 35-37° C., 20 to 24 hours, unit assumed
[2] = tested on: STAPHYLOCOCCUS AUREUS A5177; assay: as above; conditions: S. aureus A5177, unit assumed
[3] = tested on: STAPHYLOCOCCUS AUREUS A-5278; assay: as above; conditions: S. aureus A-5278, unit assumed
[4] = tested on: STAPHYLOCOCCUS AUREUS CMX 642A; assay: as above; conditions: S. aureus CMX 642A, unit assumed
[5] = tested on: STAPHYLOCOCCUS AUREUS NCTC10649M; assay: as above; conditions: S. aureus NCTC10649M, unit assumed
[6] = tested on: STAPHYLOCOCCUS AUREUS CMX 553; assay: as above; conditions: S. aureus CMX 553, unit assumed
[7] = tested on: STAPHYLOCOCCUS AUREUS 1775; assay: as above; conditions: S. aureus 1775, unit assumed
[8] = tested on: STAPHYLOCOCCUS EPIDERMIDIS 3519; conditions: S. epidermidis 3519; BHI agar; unit assumed
EN[…] ATCC 8043 = assay: In vitro antibacterial activity, MIC, BHI agar dilution; conditions: E. faecium ATCC 8043, unit assumed
Experimental: (§1) Representative compounds of the present invention were assayed in vitro for antibacterial activity as follows: Twelve petri dishes containing successive aqueous dilutions of the test compound mixed with 10 mL of sterilized Brain Heart Infusion (BHI) agar (Difco 0418-01-5) were prepared. Each plate was inoculated with 1:100 (or 1:10 for slow-growing strains, such as Micrococcus and Streptococcus) dilutions of up to 32 different microorganisms, using a Steers replicator block. The inoculated plates were incubated at 35-37° C. for 20 to 24 hours. In addition, a control plate, using BHI agar containing no test compound, was prepared and incubated at the beginning and end of each test.
(§2) An additional plate containing a compound having known susceptibility patterns for the organisms being tested and belonging to the same antibiotic class as the test compound was also prepared and incubated as a further control, as well as to provide test-to-test comparability. Erythromycin A was used for this purpose.
(§3) After incubation, each plate was visually inspected. The minimum inhibitory concentration (MIC) was defmed as the lowest concentration of drug yielding no growth, a slight haze, or sparsely isolated colonies on the inoculum spot as compared to the growth control.

M[…] ATCC 4698 = assay: as above; conditions: M. luteus ATCC 4698, unit assumed
Experimental: as §1, §2, §3

M[…] ATCC 9341 = assay: as above; conditions: M. luteus ATCC 9341, unit assumed
Experimental: as §1, §2, §3

STR[…] 508 = assay: as above; conditions: S. agalactiae CMX 508, unit assumed
Experimental: as §1, §2, §3

[9] = tested on: STREPTOCOCCUS BOVIS A-5169; assay: as above; conditions: S. bovis A-5169, unit assumed
[10] = tested on: STREPTOCOCCUS PYOGENES EES61; assay: as above; conditions: S. pyogenes EES61, unit assumed
[11] = tested on: STREPTOCOCCUS PYOGENES 930; assay: as above; conditions: S. pyogenes 930, unit assumed
ESCHERICHIA COLI JUHL = conditions: E. coli JUHL; BHI agar; unit assumed
ESCHERICHIA COLI SS = assay: In vitro antibacterial activity, MIC, BHI agar dilution; conditions: E. coli SS, unit assumed
ESCHERICHIA COLI DC-2 = assay: as above; conditions: E. coli DC-2, unit assumed
ESCHERICHIA COLI H560 = assay: as above; conditions: E. coli H560, unit assumed
ESCHERICHIA COLI KNK 437 = conditions: E. coli KNK 437; BHI agar; unit assumed
[12] = tested on: ENTEROBACTER AEROGENES ATCC 13048; assay: In vitro antibacterial activity, MIC, BHI agar dilution; conditions: E. aerogenes ATCC 13048, unit assumed
[13] = tested on: KLEBSIELLA PNEUMONIAE ATCC 8045; assay: as above; conditions: K. pneumoniae ATCC 8045, unit assumed
[14] = tested on: PROVIDENCIA STUARTII CMX 640; conditions: P. stuartii CMX 640; BHI agar; unit assumed
[15] = tested on: PSEUDOMONAS AERUGINOSA BMH10; assay: In vitro antibacterial activity, MIC, BHI agar dilution; conditions: P. aeruginosa BMH10, unit assumed
[16] = tested on: PSEUDOMONAS AERUGINOSA 5007; assay: as above; conditions: P. aeruginosa 5007, unit assumed
[17] = tested on: PSEUDOMONAS AERUGINOSA K799/WT; assay: as above; conditions: P. aeruginosa K799/WT, unit assumed
[18] = tested on: PSEUDOMONAS AERUGINOSA K799/61; assay: as above; conditions: P. aeruginosa K799/61, unit assumed
PSEUDOMONAS CEPACIA 296I = assay: as above; conditions: P. cepacia 296I, unit assumed
[19] = tested on: PSEUDOMONAS AERUGINOSA DPHD-5263; assay: as above; conditions: P. aeruginosa DPHD-5263, unit assumed
[20] = tested on: PSEUDOMONAS AERUGINOSA DPHD-2862; assay: as above; conditions: P. aeruginosa DPHD-2862, unit assumed
CANDIDA ALBICANS CCH 442 = assay: as above; conditions: C. albicans CCH 442, unit assumed
[21] = tested on: MYCOBACTERIUM SMEGMATIS ATCC 114; assay: as above; conditions: M. smegmatis ATCC 114, unit assumed
[22] = tested on: STREPTOCOCCUS PYOGENES PIU 2548; assay: as above; conditions: S. pyogenes PIU 2548, unit assumed

Structure (SMILES) | MIC [1] [µg/mL] | MIC [2] [µg/mL] | MIC [3] [µg/mL] | MIC [4] [µg/mL] | MIC [5] [µg/mL] | MIC [6] [µg/mL] | MIC [7] [µg/mL] | MIC [8] [µg/mL] | MIC (EN[…] ATCC 8043) [µg/mL] | MIC (M[…] ATCC 4698) [µg/mL] | MIC (M[…] ATCC 9341) [µg/mL] | MIC (STR[…] 508) [µg/mL] | MIC [9] [µg/mL] | MIC [10] [µg/mL] | MIC [11] [µg/mL] | MIC (ESCHERICHIA COLI JUHL) [µg/mL] | MIC (ESCHERICHIA COLI DC-2) [µg/mL] | MIC (ESCHERICHIA COLI H560) [µg/mL] | MIC (ESCHERICHIA COLI KNK 437) [µg/mL] | MIC [12] [µg/mL] | other results
CC[C@H]1OC(=O)[C@H](C)C(=O)[C@H](C)[C@@H](O[C@@H]2O[C@H](C)C[C@H](N(C)C)[C@H]2O)[C@](C)(OC)C[C@@H](C)C2=N[C@@H](COCc3ccncc3)CN3C(=O)O[C@@]1(C)[C@H]3[C@H]2C [Example 86] | 0.39 (≈ 0.514 µM) | 0.2 (≈ 0.264 µM) | > 100 | 0.39 (≈ 0.514 µM) | 0.39 (≈ 0.514 µM) | 0.39 (≈ 0.514 µM) | > 100 | 0.39 (≈ 0.514 µM) | 0.05 (≈ 0.0659 µM) | 0.39 (≈ 0.514 µM) | 0.05 (≈ 0.0659 µM) | 0.01 (≈ 0.0132 µM) | ≤ 0.005 | < 0.005 | > 100 | > 100 | 100 (≈ 132 µM) | 50 (≈ 65.9 µM) | > 100 | > 100 | MIC (ESCHERICHIA COLI SS): 0.39 µg/mL (≈ 0.514 µM); MIC [13]: > 100 µg/mL; MIC [14]: > 100 µg/mL; MIC [15]: > 100 µg/mL; MIC [16]: > 100 µg/mL; MIC [17]: 100 µg/mL (≈ 132 µM); MIC [18]: 1.56 µg/mL (≈ 2.06 µM); MIC (PSEUDOMONAS CEPACIA 296I): > 100 µg/mL; MIC [19]: > 100 µg/mL; MIC [20]: > 100 µg/mL; MIC (CANDIDA ALBICANS CCH 442): > 100 µg/mL; MIC [21]: 0.78 µg/mL (≈ 1.03 µM)
CC[C@H]1OC(=O)[C@H](C)C(=O)[C@H](C)[C@@H](O[C@@H]2O[C@H](C)C[C@H](N(C)C)[C@H]2O)[C@](C)(OC)C[C@@H](C)C2=NC3CCCCC3N3C(=O)O[C@@]1(C)[C@H]3[C@H]2C (some centres unmarked) [Example 106] | 0.2 (≈ 0.289 µM) | 0.2 (≈ 0.289 µM) | > 100 | 0.39 (≈ 0.564 µM) | 0.2 (≈ 0.289 µM) | 0.2 (≈ 0.289 µM) | > 100 | 0.2 (≈ 0.289 µM) | 0.05 (≈ 0.0723 µM) | 0.39 (≈ 0.564 µM) | 0.05 (≈ 0.0723 µM) | 0.02 (≈ 0.0289 µM) | ≤ 0.005 | ≤ 0.005 | > 100 | 25 (≈ 36.1 µM) | 25 (≈ 36.1 µM) | 12.5 (≈ 18.1 µM) | 25 (≈ 36.1 µM) | 50 (≈ 72.3 µM) | MIC (ESCHERICHIA COLI SS): 0.39 µg/mL (≈ 0.564 µM); MIC [13]: 100 µg/mL (≈ 145 µM); MIC [14]: > 100 µg/mL; MIC [15]: 100 µg/mL (≈ 145 µM); MIC [16]: > 100 µg/mL; MIC [17]: 100 µg/mL (≈ 145 µM); MIC [18]: 0.78 µg/mL (≈ 1.13 µM); MIC (PSEUDOMONAS CEPACIA 296I): 100 µg/mL (≈ 145 µM); MIC [19]: 100 µg/mL (≈ 145 µM); MIC [20]: > 100 µg/mL; MIC (CANDIDA ALBICANS CCH 442): > 100 µg/mL; MIC [21]: 3.1 µg/mL (≈ 4.48 µM)
CC[C@H]1OC(=O)[C@H](C)C(=O)[C@H](C)[C@@H](O[C@@H]2O[C@H](C)C[C@H](N(C)C)[C@H]2O)[C@](C)(OC)C[C@@H](C)C2=NC3CN(C(C)c4ccccc4)CC3N3C(=O)O[C@@]1(C)[C@H]3[C@H]2C (some centres unmarked) [Example 113] | 0.78 (≈ 0.996 µM) | 0.39 (≈ 0.498 µM) | > 100 | 0.78 (≈ 0.996 µM) | 0.78 (≈ 0.996 µM) | 0.78 (≈ 0.996 µM) | > 100 | 1.56 (≈ 1.99 µM) | 0.2 (≈ 0.255 µM) | 0.78 (≈ 0.996 µM) | 0.1 (≈ 0.128 µM) | 0.2 (≈ 0.255 µM) | 0.01 (≈ 0.0128 µM) | 0.05 (≈ 0.0639 µM) | > 100 | > 100 | > 100 | 50 (≈ 63.9 µM) | > 100 | > 100 | MIC [22]: 0.39 µg/mL (≈ 0.498 µM); MIC [13]: > 100 µg/mL; MIC [14]: > 100 µg/mL; MIC [15]: > 100 µg/mL; MIC [16]: > 100 µg/mL; MIC [17]: > 100 µg/mL; MIC [18]: 3.1 µg/mL (≈ 3.96 µM); MIC (PSEUDOMONAS CEPACIA 296I): > 100 µg/mL; MIC [19]: > 100 µg/mL; MIC [20]: > 100 µg/mL; MIC (CANDIDA ALBICANS CCH 442): > 100 µg/mL
